Data: US20260240888A1, “METHODS AND PHARMACEUTICAL COMPOSITIONS FOR TREATING AGE-RELATED DISEASES” (Neurxstem, priority 2023, published 2026)
Structures can show the parent of a compound that is named as a salt.

Experiments:
PG-NNOP neural organoids = test: Gene expression (Ampliseq transcriptomics) in PG-NNOP neural organoids treated with drug; assay type: cell-based, human
Description: Furthermore, in one embodiment RNA from neural organoids for Alzheimer's disease, are converted to DNA libraries and then the representative DNA libraries are sequenced using exon-specific primers for 20,814 genes using the AmpliSeq™ technique available commercially from ThermoFisher. Reads in counts per […] (cpm)<1 are considered background noise. All cpm data are normalized data and the reads are a direct representation of the abundance of the RNA for each gene. In another informative embodiment, RNA from neural organoids for Progeroid syndromes were converted to DNA libraries and then sequenced according to this protocol.
Neural Organoids derived from induced pluripotent stem cells derived from adult skin cells of AD, ADRD, MED, or Hutchinson Gilford progeria (PG) patients were grown in vitro for […] as previous described in U.S. Pat. No. 11,435,890, incorporated by reference in its entirety herein. Transcriptomic data from these neural organoids were obtained. Differences in expression of 20,814 genes expressed in the human genome were determined between these neural organoids and those from neural organoids from a normal individual human (an individual not having/diagnosed with AD, ADRD, MED, or Progeroid syndromes). Detailed data analysis using Gene Card and Pubmed data bases were performed. […] These genes comprise a suite of biomarkers for Alzheimer's disease.
Thus, given the overlap in transcriptomic profile of AD and PG, experiments were set out to test the effect of targeting this receptor on PG-NNOP. FAAH inhibitor PF-3845, which is known to raise endogenous levels of endocannabinoid anandamide receptor agonist anandamide and increase endocannabinoid anandamide receptor activity, was tested for effects on gene expression dysregulation in PG-NNOP platform cells as set forth herein (Table 7). […] As the log 2 fold numbers reveal, the direction of the change in gene expression was completely reversed in some biomarkers by PF-3845, or the change was reduced by PF-3845. Thus, PF-3845 was capable of reverting the biomarkers of PG to normalcy.
Expression of differentially expressed genes in PG-NNOP neural organoids compared to Normal-NNOP in culture for 12 weeks is shown, as well as expression of differentially expressed genes in PG-NNOP neural organoids with PF-3845 treatment compared to PG-NNOP without drug treatment in culture for 12 weeks. […] PG-NNOP neural organoids were incubated with vehicle (0.1% DMSO; control) or PF-3845 dissolved in DMSO at 10microM for 4 days and harvested for RNA extraction and gene expression analysis by Ampliseq™ (Thermofisher). Log 2 fold change with a positive value indicates a decrease in expression of a PG-NNOP gene when compared to Normal-NNOP or a PG-NNOP gene with FAAH-I compared to PG-NNOP without the drug treatment, and with a negative number indicates an increase in gene expression.
Expression of differentially expressed genes in PG-NNOP neural organoids compared to Normal-NNOP in culture for 12 weeks and expression of differentially expressed genes in PG-NNOP neural organoids with metformin treatment compared to PG-NNOP without drug treatment in culture for 12 weeks is shown. […] PG-NNOP neural organoids were incubated with vehicle (HBBS; control) or metformin dissolved in HBBS at 0.28 mg/ml for 4 days and harvested for RNA extraction and gene expression analysis by Ampliseq™ (Thermofisher). Log 2 fold change with a positive value indicates a decrease in expression of a PG-NNOP gene when compared to Normal-NNOP or a PG-NNOP gene with Metformin compared to PG-NNOP without the drug treatment, and with a negative number indicates an increase in gene expression.
Expression of differentially expressed genes in PG-NNOP neural organoids compared to Normal-NNOP in culture for 12 weeks and expression of differentially expressed genes in PG-NNOP neural organoids with rapamycin treatment compared to PG-NNOP without drug treatment in culture for 12 weeks is shown. […]

[1] = cited from earlier work
[2] = cited from earlier work; remark: listed apart in the source
[3] = tested on: AD-NNOP-ApoE neural organoids; test: Gene expression (Ampliseq transcriptomics) in AD-NNOP-ApoE neural organoids treated with CGS-21680; assay type: cell-based, human
Description: Reads in counts per minute (cpm)<1 are considered background noise. All cpm data are normalized data and the reads are a direct representation of the abundance of the RNA for each gene.
Expression of differentially expressed genes in PG-NNOP neural organoids compared to Normal-NNOP in culture for 12 weeks.

[4] = 10microM, 4 days, vs PG-NNOP without drug, positive = decrease in expression
[5] = 0.28 mg/ml, 4 days, vs PG-NNOP without drug, positive = decrease in expression
[6] = 50 nM, 4 days, vs PG-NNOP without drug, positive = decrease in expression

## O=C(Nc1cccnc1)N1CCC(Cc2cccc(Oc3ccc(C(F)(F)F)cn3)c2)CC1 [PF-3845, N-3-Pyridinyl-4-[[3-[[5-(trifluoromethyl)-2-pyridinyl]oxy]phenyl]methyl]-1-piperidinecarboxamide]
PG-NNOP neural organoids
  effect on dysregulated gene expression in PG-NNOP: effective in correcting the gene expression that was altered in PG-NNOP
PG-NNOP neural organoids; [4]
  Log2 Fold Change of CDKN1A gene expression: 0.77
  Log2 Fold Change of EZH2 gene expression: −0.5
  Log2 Fold Change of ID2 gene expression: 0.35
  Log2 Fold Change of IDI1 gene expression: 1.15
  Log2 Fold Change of LMNB2 gene expression: −0.67
  Log2 Fold Change of MT2A gene expression: 2.77
  Log2 Fold Change of SLC35F1 gene expression: −0.65
  Log2 Fold Change of SLC38A1 gene expression: −0.57
  Log2 Fold Change of USP31 gene expression: 0.62

## CN(C)C(=N)NC(=N)N [Metformin]
PG-NNOP neural organoids
  effect on dysregulated gene expression in PG-NNOP: shifted the gene expression towards normalcy
PG-NNOP neural organoids; [5]
  Log2 Fold Change of CDK1 gene expression: 0.52
  Log2 Fold Change of CDKN1A gene expression: −0.35
  Log2 Fold Change of DNAJC1 gene expression: −0.26
  Log2 Fold Change of ID2 gene expression: 0.86
  Log2 Fold Change of LMNB2 gene expression: −0.42
  Log2 Fold Change of MT2A gene expression: 2.06
  Log2 Fold Change of POGZ gene expression: 0.36
  Log2 Fold Change of POLE3 gene expression: −0.25
  Log2 Fold Change of SLC35F1 gene expression: −0.47
  Log2 Fold Change of USP31 gene expression: 0.67
  Log2 Fold Change of VCP gene expression: 0.33
  Log2 Fold Change of WRN gene expression: 0.71

## COc1ccc(C2CNC(=O)C2)cc1OC1CCCC1 (stereo not drawn) [Rolipram]
[1]
  IC50: 800 nM

## CCNC(=O)[C@H]1O[C@@H](n2cnc3c(N)nc(C#CC[C@H]4CC[C@H](C(=O)OC)CC4)nc32)[C@H](O)[C@@H]1O [Apadenoson, methyl (1R,4r)-4-(3-(6-amino-9-((2R,3R,4S,5S)-5-(ethylcarbamoyl)-3,4-dihydroxytetrahydrofuran-2-yl)-9H-purin-2-yl)prop-2-yn-1-yl)cyclohexane-1-carboxylate]
[2]; DMSO
  solubility in DMSO: Soluble in DMSO

## CO[C@H]1C[C@@H]2CC[C@@H](C)[C@@](O)(O2)C(=O)C(=O)N2CCCC[C@H]2C(=O)O[C@H]([C@H](C)C[C@@H]2CC[C@@H](O)[C@H](OC)C2)CC(=O)[C@H](C)/C=C(\C)[C@@H](O)[C@@H](OC)C(=O)[C@H](C)C[C@H](C)/C=C/C=C/C=C/1C [Rapamycin]
PG-NNOP neural organoids
  effect on dysregulated gene expression in PG-NNOP: shifted the gene expression towards normalcy
PG-NNOP neural organoids; [6]
  Log2 Fold Change of CDKN1A gene expression: 1.21
  Log2 Fold Change of IDI1 gene expression: 1.48
  Log2 Fold Change of LMNB2 gene expression: −0.96
  Log2 Fold Change of MT2A gene expression: 3.23
  Log2 Fold Change of POLE3 gene expression: 0.75
  Log2 Fold Change of SLC35F1 gene expression: −0.83
  Log2 Fold Change of SLC38A1 gene expression: −1.15
  Log2 Fold Change of USP36 gene expression: 0.99

## CCNC(=O)[C@H]1O[C@@H](n2cnc3c(N)nc(NCCc4ccc(CCC(=O)O)cc4)nc32)[C@H](O)[C@@H]1O [CGS-21680, 2-p-(2-Carboxyethyl) phenethylamino-5′-N-ethylcarboxamidoadenosine hydrochloride hydrate]
[3]
  effect on dysregulation of SLC7A5 and MT2A: the dysregulation was corrected
[3]; 1 micromolar
  effect on gene expression dysregulated in both AD-ApoE-NNOP and PG-NNOP: significantly altered gene expression
[3]; direction towards normalcy
  effect on changes in expression of SELENBP1 and RARB in AD-ApoE-NNOP: reduced the changes in expression of both genes
[2]; 45% (w/v) aq 2-hydroxypropyl-β-cyclodextrin
  soluble in 45% (w/v) aq 2-hydroxypropyl-β-cyclodextrin: ≤ 20 mg/mL
[2]; DMSO
  soluble in DMSO: up to 3.4 mg/mL
